Several values for one entry are separate records, joined by “and”; a condition that tells them apart may be missing. Equal entries are not always repeated. One block for each compound: values may come before it.
Test system: 388556-164-R-J1-PDC complex spheroid viability
Assay: Anticancer human tumor 388556-164-R-J1-PDC patient-derived colon adenocarcinoma cell line growth inhibition [RAS]
Conditions: for viability, T/C: stronger effect = lower value
Method in brief: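 Tumour cells grown as complex spheroids with HUVEC endothelial cells and mesenchymal stem cells, treated with RAS pathway inhibitor combinations. Each agent spans half-log steps from near clinical Cmax, or 10 microM where Cmax is unknown.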

[1] = curve of first compound, second compound 0.0316 µM
[2] = curve of first compound, second compound 0.1 µM
[3] = curve of first compound, second compound 0.316 µM
[4] = curve of first compound, second compound 1 µM
[5] = second compound 0.0316 µM, first compound 0.0316 µM
[6] = second compound 0.0316 µM, first compound 0.1 µM
[7] = second compound 0.0316 µM, first compound 0.316 µM
[8] = second compound 0.0316 µM, first compound 1 µM
[9] = second compound 0.1 µM, first compound 0.0316 µM
[10] = second compound 0.1 µM, first compound 0.1 µM
[11] = second compound 0.1 µM, first compound 0.316 µM
[12] = second compound 0.1 µM, first compound 1 µM
[13] = second compound 0.316 µM, first compound 0.0316 µM
[14] = second compound 0.316 µM, first compound 0.1 µM
[15] = second compound 0.316 µM, first compound 0.316 µM
[16] = second compound 0.316 µM, first compound 1 µM
[17] = second compound 1 µM, first compound 0.0316 µM
[18] = second compound 1 µM, first compound 0.1 µM
[19] = second compound 1 µM, first compound 0.316 µM
[20] = second compound 1 µM, first compound 1 µM
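Note: spheroids exposed to compound for 7 days before readout.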
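Throughout, for viability, T/C: 100% = DMSO vehicle control luminescence.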

IC50 [1]: > 10000 nM
IC50 [2]: > 10000 nM
IC50 [3]: > 10000 nM
IC50 [4]: > 10000 nM
IC50 (curve of first compound, second compound 3.16 µM): 6130 nM
IC50 (curve of first compound, second compound 10 µM): 811 nM
SMILES: CC(=O)OC12COC1CC(O)C1(C)C(=O)C(O)C3=C(C)C(OC(=O)C(O)C(NC(=O)OC(C)(C)C)c4ccccc4)CC(O)(C(OC(=O)c4ccccc4)C21)C3(C)C (configuration not stated) + C#Cc1c(F)ccc2cc(O)cc(-c3ncc4c(N5CC6CCC(C5)N6)nc(OCC56CCCN5CC(F)C6)nc4c3F)c12
viability, T/C [5]: 80.7%
viability, T/C [6]: 80.8%
viability, T/C [7]: 76.1%
viability, T/C [8]: 76.1%
viability, T/C (second compound 0.0316 µM, first compound 3.16 µM): 74.5%
viability, T/C (second compound 0.0316 µM, first compound 10 µM): 75.1%
viability, T/C [9]: 87.6%
viability, T/C [10]: 80.8%
viability, T/C [11]: 71.5%
viability, T/C [12]: 75.2%
viability, T/C (second compound 0.1 µM, first compound 3.16 µM): 78.9%
viability, T/C (second compound 0.1 µM, first compound 10 µM): 75.4%
viability, T/C [13]: 82.5%
viability, T/C [14]: 73.7%
viability, T/C [15]: 67.4%
viability, T/C [16]: 69.7%
viability, T/C (second compound 0.316 µM, first compound 3.16 µM): 77.1%
viability, T/C (second compound 0.316 µM, first compound 10 µM): 59%
viability, T/C [17]: 78.5%
viability, T/C [18]: 74.4%
viability, T/C [19]: 59.6%
viability, T/C [20]: 67.4%
viability, T/C (second compound 1 µM, first compound 3.16 µM): 69%
viability, T/C (second compound 1 µM, first compound 10 µM): 49.8%
viability, T/C (second compound 3.16 µM, first compound 0.0316 µM): 72.8%
viability, T/C (second compound 3.16 µM, first compound 0.1 µM): 58.2%
viability, T/C (second compound 3.16 µM, first compound 0.316 µM): 59%
viability, T/C (second compound 3.16 µM, first compound 1 µM): 65.8%
viability, T/C (second compound 3.16 µM, first compound 3.16 µM): 63.3%
viability, T/C (second compound 3.16 µM, first compound 10 µM): 40.2%
viability, T/C (second compound 10 µM, first compound 0.0316 µM): 56.6%
viability, T/C (second compound 10 µM, first compound 0.1 µM): 48.2%
viability, T/C (second compound 10 µM, first compound 0.316 µM): 52.4%
viability, T/C (second compound 10 µM, first compound 1 µM): 54.7%
viability, T/C (second compound 10 µM, first compound 3.16 µM): 40.1%
viability, T/C (second compound 10 µM, first compound 10 µM): 35.5%

IC50 (curve of first compound, second compound 0.00316 µM): 129 nM
IC50 (curve of first compound, second compound 0.01 µM): 158 nM
IC50 [1]: 159 nM
IC50 [2]: 191 nM
IC50 [3]: 150 nM
IC50 [4]: 144 nM
SMILES: O=C(c1ccc(F)c(F)c1Nc1ccc(I)cc1F)N1CC(O)([C@@H]2CCCCN2)C1 + C=CC(=O)N1CCN(c2nc(OCC3CCCN3C)nc3c(F)c(-c4nc(N)cc(C)c4C(F)(F)F)c(Cl)cc23)C(C)C1
viability, T/C (second compound 0.00316 µM, first compound 0.00316 µM): 97.8%
viability, T/C (second compound 0.00316 µM, first compound 0.01 µM): 90.8%
viability, T/C (second compound 0.00316 µM, first compound 0.0316 µM): 83.7%
viability, T/C (second compound 0.00316 µM, first compound 0.1 µM): 53.5%
viability, T/C (second compound 0.00316 µM, first compound 0.316 µM): 33.5%
viability, T/C (second compound 0.00316 µM, first compound 1 µM): 22.8%
viability, T/C (second compound 0.01 µM, first compound 0.00316 µM): 106%
viability, T/C (second compound 0.01 µM, first compound 0.01 µM): 90.3%
viability, T/C (second compound 0.01 µM, first compound 0.0316 µM): 78.2%
viability, T/C (second compound 0.01 µM, first compound 0.1 µM): 61.2%
viability, T/C (second compound 0.01 µM, first compound 0.316 µM): 34.5%
viability, T/C (second compound 0.01 µM, first compound 1 µM): 20.1%
viability, T/C (second compound 0.0316 µM, first compound 0.00316 µM): 92%
viability, T/C (second compound 0.0316 µM, first compound 0.01 µM): 94.4%
viability, T/C [5]: 82.7%
viability, T/C [6]: 59.8%
viability, T/C [7]: 35%
viability, T/C [8]: 18.9%
viability, T/C (second compound 0.1 µM, first compound 0.00316 µM): 91.6%
viability, T/C (second compound 0.1 µM, first compound 0.01 µM): 96%
viability, T/C [9]: 86.5%
viability, T/C [10]: 65.4%
viability, T/C [11]: 38.1%
viability, T/C [12]: 23.3%
viability, T/C (second compound 0.316 µM, first compound 0.00316 µM): 95.6%
viability, T/C (second compound 0.316 µM, first compound 0.01 µM): 97%
viability, T/C [13]: 84.5%
viability, T/C [14]: 58.6%
viability, T/C [15]: 34%
viability, T/C [16]: 21.6%
viability, T/C (second compound 1 µM, first compound 0.00316 µM): 97.3%
viability, T/C (second compound 1 µM, first compound 0.01 µM): 96.8%
viability, T/C [17]: 86.1%
viability, T/C [18]: 61.5%
viability, T/C [19]: 26.7%
viability, T/C [20]: 18.9%

IC50 (curve of first compound, second compound 0.000949 µM): 43.9 nM
IC50 (curve of first compound, second compound 0.003 µM): 35.5 nM
IC50 (curve of first compound, second compound 0.00949 µM): 16.2 nM
IC50 (curve of first compound, second compound 0.03 µM): 5.2 nM
IC50 (curve of first compound, second compound 0.0949 µM): < 0.316 nM
IC50 (curve of first compound, second compound 0.3 µM): < 0.316 nM
SMILES: CC(C)n1nc(-c2ccc3oc(N)nc3c2)c2c(N)ncnc21 + CCn1c(-c2cc(N3CCN(C)CC3)cnc2C(C)OC)c2c3cc(ccc31)-c1csc(n1)CC(NC(=O)C1CC1C)C(=O)N1CCCC(N1)C(=O)OCC(C)(C)C2
viability, T/C (second compound 0.000949 µM, first compound 0.000316 µM): 107%
viability, T/C (second compound 0.000949 µM, first compound 0.001 µM): 94.8%
viability, T/C (second compound 0.000949 µM, first compound 0.00316 µM): 73.7%
viability, T/C (second compound 0.000949 µM, first compound 0.01 µM): 71.5%
viability, T/C (second compound 0.000949 µM, first compound 0.0316 µM): 56.4%
viability, T/C (second compound 0.000949 µM, first compound 0.1 µM): 38%
viability, T/C (second compound 0.003 µM, first compound 0.000316 µM): 88.3%
viability, T/C (second compound 0.003 µM, first compound 0.001 µM): 80.4%
viability, T/C (second compound 0.003 µM, first compound 0.00316 µM): 72.2%
viability, T/C (second compound 0.003 µM, first compound 0.01 µM): 68.1%
viability, T/C (second compound 0.003 µM, first compound 0.0316 µM): 50.8%
viability, T/C (second compound 0.003 µM, first compound 0.1 µM): 34.9%
viability, T/C (second compound 0.00949 µM, first compound 0.000316 µM): 82.4%
viability, T/C (second compound 0.00949 µM, first compound 0.001 µM): 78.9%
viability, T/C (second compound 0.00949 µM, first compound 0.00316 µM): 59.4%
viability, T/C (second compound 0.00949 µM, first compound 0.01 µM): 56.5%
viability, T/C (second compound 0.00949 µM, first compound 0.0316 µM): 47.1%
viability, T/C (second compound 0.00949 µM, first compound 0.1 µM): 27.2%
viability, T/C (second compound 0.03 µM, first compound 0.000316 µM): 60.6%
viability, T/C (second compound 0.03 µM, first compound 0.001 µM): 55.1%
viability, T/C (second compound 0.03 µM, first compound 0.00316 µM): 62.5%
viability, T/C (second compound 0.03 µM, first compound 0.01 µM): 37.6%
viability, T/C (second compound 0.03 µM, first compound 0.0316 µM): 34.4%
viability, T/C (second compound 0.03 µM, first compound 0.1 µM): 21.5%
viability, T/C (second compound 0.0949 µM, first compound 0.000316 µM): 46.3%
viability, T/C (second compound 0.0949 µM, first compound 0.001 µM): 42.1%
viability, T/C (second compound 0.0949 µM, first compound 0.00316 µM): 39.1%
viability, T/C (second compound 0.0949 µM, first compound 0.01 µM): 34.4%
viability, T/C (second compound 0.0949 µM, first compound 0.0316 µM): 27.9%
viability, T/C (second compound 0.0949 µM, first compound 0.1 µM): 18.2%
viability, T/C (second compound 0.3 µM, first compound 0.000316 µM): 30.6%
viability, T/C (second compound 0.3 µM, first compound 0.001 µM): 32.6%
viability, T/C (second compound 0.3 µM, first compound 0.00316 µM): 27.9%
viability, T/C (second compound 0.3 µM, first compound 0.01 µM): 23.5%
viability, T/C (second compound 0.3 µM, first compound 0.0316 µM): 20.9%
viability, T/C (second compound 0.3 µM, first compound 0.1 µM): 17.1%

IC50 (curve of compound): > 10000 nM
SMILES: CC(C)NCC(C(=O)N1CCN(c2ncnc3c2C(C)CC3O)CC1)c1ccc(Cl)cc1 (configuration not stated)
viability, T/C (compound 0.1 µM): 108% [middle of 4 runs]
viability, T/C (compound 0.316 µM): 119% and 102% (3×)
viability, T/C (compound 1 µM): 100% [middle of 4 runs]
viability, T/C (compound 3.16 µM): 100% [middle of 4 runs]
viability, T/C (compound 10 µM): 103% [middle of 4 runs]

Reference: PubChem BioAssay AID2060907 (Molecular Pharmacology Branch, DTP, NCI, 2025)
